In patent US20150291565A1, “INDOLE COMPOUNDS AND THEIR USE AS ANTIMICROBIALS” (Memorial Sloan-Kettering Cancer Center, priority 2012, published 2015):
Values after ≈ are worked out from the molar mass of the structure shown. Where two headings read alike, the source gives them in different places.

How the values were obtained:
[1] = tested on: S. pneumoniae ATCC 700674 (PRSP); experiment: Broth dilution MIC, S. pneumoniae ATCC 700674; format: cell-based; conditions: Streptococcus pneumoniae
M. smegmatis (mc2155) = experiment: Disk diffusion assay, zone of inhibition, M. smegmatis; format: cell-based; conditions: disk diffusion zone of inhibition
[2] = tested on: S. pneumoniae ATCC 6301 (PSSP); experiment: Broth dilution MIC, S. pneumoniae ATCC 6301; format: cell-based; conditions: Streptococcus pneumoniae
[3] = tested on: E. faecalis ATCC 29212 (VRE); experiment: Broth dilution MIC, E. faecalis ATCC 29212; format: cell-based
P. aeruginosa ATCC 9027 = experiment: Broth dilution MIC, P. aeruginosa ATCC 9027; format: cell-based; conditions: Pseudomonas aeruginosa
MRSA = experiment: Disk diffusion assay, zone of inhibition, MRSA; format: cell-based, Staphylococcus aureus; conditions: disk diffusion zone of inhibition
E. faecium CT-26 = experiment: Broth dilution MIC, E. faecium CT-26; format: cell-based; conditions: Enterococcus faecium
C. albicans ATCC 14053 = experiment: Broth dilution MIC, C. albicans ATCC 14053; format: cell-based; conditions: Candida albicans, ATCC14053; Table 1; range 64 down to 0.12 μg/ml
Protocol: In vitro Anti-bacterial & Anti-fungal Activity Assay: All test compounds were prepared as 6.4 mg/ml stock solutions in DMSO and further diluted according to the NCCLS M7-A6 (Page 5) document with sterile water or appropriate diluent. A working stock of 256 μg/ml was used to do 1:2 serial dilutions in 96-well plates. […] The inoculums were prepared by making a direct sterile water suspension of isolated colonies from 18 to 24 hr agar plates for all organisms (Mueller Hinton, Blood Agar or SDA plates). Each bacterial suspension was adjusted to read between 0.09 and 0.11 absorbance at 620 nm. […] These were further diluted 1/100 in appropriate broth for inoculating the 96-well plates. The C. albicans suspension was adjusted to read between 70 and 75% Transmittance at 530 nm and then diluted 1/500 in RPMI+MOPS broth. All aerobic bacterial and fungal plates were incubated for 18 hrs. at 35° C. […] Plates were read using a Beckman Automated Plate Reader at 650 nm. Readings were confirmed by visual examination of plates. (See Table 1, Table 2, Table 3, and Table 4). […] It is important to note that positive results against C. albicans are often indicative of broad spectrum antifungal activity, while negative results are not necessarily conclusory of a lack of activity against other fungus.

S. aureus BAA-39 (MDR) = experiment: Broth dilution MIC, S. aureus BAA-39; format: cell-based; conditions: for MIC: Staphylococcus aureus, BAA39
[4] = tested on: E. faecium ATCC 700221 (VRE); experiment: Broth dilution MIC, E. faecium ATCC 700221; format: cell-based
E. coli ECM 1694 = experiment: Broth dilution MIC, E. coli ECM 1694; format: cell-based; conditions: Escherichia coli
K. pneumoniae ATCC 13883 = experiment: Broth dilution MIC, K. pneumoniae ATCC 13883; format: cell-based; conditions: Klebsiella pneumoniae
E. coli ATCC 25922 = experiment: Broth dilution MIC, E. coli ATCC 25922; format: cell-based; conditions: Escherichia coli
[5] = tested on: S. aureus ATCC 29213 (MSSA); experiment: Broth dilution MIC, S. aureus ATCC 29213; format: cell-based; conditions: Staphylococcus aureus
K. pneumoniae ATCC 51503 = experiment: Broth dilution MIC, K. pneumoniae ATCC 51503; format: cell-based; conditions: Klebsiella pneumoniae
[6] = tested on: S. aureus ATCC 33591 (MRSA); experiment: Broth dilution MIC, S. aureus ATCC 33591; format: cell-based; conditions: for MIC: Staphylococcus aureus
[7] = Table 1, range 64 down to 0.12 μg/ml, read-out: MIC S. pneumoniae ATCC 700674
[8] = Table 2, broth dilution MIC in ug/ml, read-out: MIC S pneumonia ATCC 700674 PRSP
[9] = ATCC6301, Table 1, range 64 down to 0.12 μg/ml, read-out: MIC S. pneumoniae ATCC 6301
[10] = ATCC6301, Table 2, broth dilution MIC in ug/ml, read-out: MIC S pneumonia ATCC 6301 PSSP
[11] = Enterococcus faecalis, Table 1, range 64 down to 0.12 μg/ml, read-out: MIC E. faecalis ATCC 29212
[12] = Table 2, broth dilution MIC in ug/ml, read-out: MIC E faecalis ATCC 29212 VRE
[13] = ATCC 9026 / ATCC 9027, Table 2, broth dilution MIC in ug/ml, read-out: MIC P aeruginosa ATCC 9026
[14] = ATCC9027, Table 1, range 64 down to 0.12 μg/ml, read-out: MIC P. aeruginosa ATCC 9027
[15] = CT26, Table 1, range 64 down to 0.12 μg/ml, read-out: MIC E. faecium CT-26
[16] = CT26, Table 2, broth dilution MIC in ug/ml, read-out: MIC E faecium CT-25
[17] = Table 1, range 64 down to 0.12 μg/ml, read-out: MIC S. aureus BAA-39
[18] = Table 2, broth dilution MIC in ug/ml, read-out: MIC S aureus BAA-39 MDR
[19] = Enterococcus faecium, Table 1, range 64 down to 0.12 μg/ml, read-out: MIC E. faecium ATCC 700221
[20] = Table 2, broth dilution MIC in ug/ml, read-out: MIC E faecium ATCC 700221 VRE
[21] = ECM1694, Table 1, range 64 down to 0.12 μg/ml, read-out: MIC E. coli ECM 1694
[22] = ECM1694, Table 2, broth dilution MIC in ug/ml, read-out: MIC E. coli ECM 1693
[23] = ATCC13883, Table 1, range 64 down to 0.12 μg/ml, read-out: MIC K. pneumoniae ATCC 13883
[24] = ATCC13883, Table 2, broth dilution MIC in ug/ml, read-out: MIC K pneumonia ATCC 13883
[25] = ATCC 25921 / ATCC 25922, Table 2, broth dilution MIC in ug/ml, read-out: MIC E. coli ATCC 25921
[26] = ATCC25922, Table 1, range 64 down to 0.12 μg/ml, read-out: MIC E. coli ATCC 25922
[27] = Table 1, range 64 down to 0.12 μg/ml, read-out: MIC S. aureus ATCC 29213
[28] = Table 2, broth dilution MIC in ug/ml, read-out: MIC S aureus ATCC 29213 MSSA
[29] = ATCC51503, Table 1, range 64 down to 0.12 μg/ml, read-out: MIC K. pneumoniae ATCC 51503
[30] = ATCC51503, Table 2, broth dilution MIC in ug/ml, read-out: MIC K pneumonia ATCC 51503
[31] = Table 1, range 64 down to 0.12 μg/ml, read-out: MIC S. aureus ATCC 33591
[32] = Table 2, broth dilution MIC in ug/ml, read-out: MIC S aureus ATCC 33591 MRSA

Row | SMILES | MIC [1, 7] [µg/mL] | MIC [1, 8] [µg/mL] | Zone Size M. smegmatis (M. smegmatis (mc2155)) [mm] | MIC [2, 9] [µg/mL] | MIC [2, 10] [µg/mL] | MIC [3, 11] [µg/mL] | MIC [3, 12] [µg/mL] | MIC (P. aeruginosa ATCC 9027; [13]) [µg/mL] | MIC (P. aeruginosa ATCC 9027; [14]) [µg/mL] | Zone Size MRSA (MRSA) [mm] | MIC (E. faecium CT-26; [15]) [µg/mL] | MIC (E. faecium CT-26; [16]) [µg/mL] | MIC (C. albicans ATCC 14053) [µg/mL] | MIC (S. aureus BAA-39 (MDR); [17]) [µg/mL] | MIC (S. aureus BAA-39 (MDR); [18]) [µg/mL] | MIC [4, 19] [µg/mL] | MIC [4, 20] [µg/mL] | MIC (E. coli ECM 1694; [21]) [µg/mL] | MIC (E. coli ECM 1694; [22]) [µg/mL] | MIC (K. pneumoniae ATCC 13883; [23]) [µg/mL] | also measured
1 | c1ccc(Nc2ccc(-c3cc4ccc(C5=NCCN5)cc4[nH]3)cc2)cc1 [SKI-2] | 4 (≈ 11.3 µM) | 4 (≈ 11.3 µM) | 14.3 | 2 (≈ 5.67 µM) | 2 (≈ 5.67 µM) | 2 (≈ 5.67 µM) | 2 (≈ 5.67 µM) | 64 (≈ 182 µM) | 64 (≈ 182 µM) | 10 | 2 (≈ 5.67 µM) | 2 (≈ 5.67 µM) | 16 (≈ 45.4 µM) | 4 (≈ 11.3 µM) | 4 (≈ 11.3 µM) | 2 (≈ 5.67 µM) | 2 (≈ 5.67 µM) | 2 (≈ 5.67 µM) | 2 (≈ 5.67 µM) | 32 (≈ 90.8 µM) | MIC (K. pneumoniae ATCC 13883; [24]): 32 µg/mL (≈ 90.8 µM); MIC (E. coli ATCC 25922; [25]): 16 µg/mL (≈ 45.4 µM); MIC (E. coli ATCC 25922; [26]): 16 µg/mL (≈ 45.4 µM); MIC [5, 27]: 8 µg/mL (≈ 22.7 µM); MIC [5, 28]: 8 µg/mL (≈ 22.7 µM); MIC (K. pneumoniae ATCC 51503; [29]): 64 µg/mL (≈ 182 µM); MIC (K. pneumoniae ATCC 51503; [30]): 64 µg/mL (≈ 182 µM); MIC [6, 31]: 4 µg/mL (≈ 11.3 µM); MIC [6, 32]: 4 µg/mL (≈ 11.3 µM)
2 | c1cncc(Nc2ccc(-c3cc4ccc(C5=NCCN5)cc4[nH]3)cc2)c1 [SKI-4] | 0.5 (≈ 1.41 µM) | 0.5 (≈ 1.41 µM) | 27.6 | ≤ 0.12 | 0.06 (≈ 0.17 µM) | 0.5 (≈ 1.41 µM) | 0.5 (≈ 1.41 µM) | 64 (≈ 181 µM) | > 64 | 14 | 0.25 (≈ 0.707 µM) | 0.25 (≈ 0.707 µM) | > 64 | 1 (≈ 2.83 µM) | 1 (≈ 2.83 µM) | 0.25 (≈ 0.707 µM) | 0.25 (≈ 0.707 µM) | ≤ 0.12 | 0.12 (≈ 0.34 µM) | > 64 | MIC ([1]; Table 3, starting at 4 μg/ml, read-out: MIC S. pneumoniae ATCC 700674): 0.5 µg/mL (≈ 1.41 µM); MIC ([2]; ATCC6301, Table 3, starting at 4 μg/ml, read-out: MIC S. pneumoniae ATCC 6301): 0.06 µg/mL (≈ 0.17 µM); MIC E. faecalis ATCC 29212 ([3]; Table 3, starting at 4 μg/ml): 0.5 µg/mL (≈ 1.41 µM); MIC (E. faecium CT-26; CT26, Table 3, starting at 4 μg/ml, read-out: MIC E. faecium CT-26): 0.25 µg/mL (≈ 0.707 µM); MIC S. aureus BAA-39 (S. aureus BAA-39 (MDR); Table 3, starting at 4 μg/ml): 1 µg/mL (≈ 2.83 µM); MIC ([4]; Enterococcus faecium, Table 3, starting at 4 μg/ml, read-out: MIC E. faecium ATCC 700221): 0.25 µg/mL (≈ 0.707 µM); MIC (E. coli ECM 1694; ECM1694, Table 3, starting at 4 μg/ml, read-out: MIC E. coli ECM 1694): 0.12 µg/mL (≈ 0.34 µM); MIC (K. pneumoniae ATCC 13883; [24]): 64 µg/mL (≈ 181 µM); MIC (E. coli ATCC 25922; [25]): 1 µg/mL (≈ 2.83 µM); MIC (E. coli ATCC 25922; [26]): 1 µg/mL (≈ 2.83 µM); MIC ([5]; Table 3, starting at 4 μg/ml, read-out: MIC S. aureus ATCC 29213): 1 µg/mL (≈ 2.83 µM); MIC [5, 27]: 2 µg/mL (≈ 5.66 µM); MIC [5, 28]: 1 µg/mL (≈ 2.83 µM); MIC (K. pneumoniae ATCC 51503; [29]): > 64 µg/mL; MIC (K. pneumoniae ATCC 51503; [30]): 64 µg/mL (≈ 181 µM); MIC [6, 31]: 1 µg/mL (≈ 2.83 µM); MIC [6, 32]: 1 µg/mL (≈ 2.83 µM); MIC S. aureus ATCC 33591 ([6]; Table 3, starting at 4 μg/ml): 1 µg/mL (≈ 2.83 µM)
